The source of these data is US20240018133A1, “MODULATORS OF THE INTEGRATED STRESS PATHWAY” (Calico Life Sciences LLC, priority 2019, published 2024).

In this assay the test system is ATF4 luciferase reporter (human full-length ATF4 5'-UTR fused to firefly luciferase) in HEK293T cells. The assay can be described thus: ATF4-Luc assay (in vitro model of VWMD): HEK293T cells carrying ATF4 luciferase reporter, tunicamycin-treated. It counts as cell-based. The settings on record: 1 μg/mL tunicamycin, 7 hours, One Glo luminescence. Here is the method:
In order to test exemplary compounds of the invention in a cellular context, a stable VWMD cell line was first constructed. The ATF4 reporter was prepared by fusing the human full-length ATF4 5′-UTR (NCBI Accession No. BC022088.2) in front of the firefly luciferase (FLuc) coding sequence lacking the initiator methionine as described in Sidrauski et al (eLife 2013). The construct was used to produce recombinant retroviruses using standard methods and the resulting viral supernatant was used to transduce HEK293T cells, which were then subsequently selected with puromycin to generate a stable cell line.
HEK293T cells carrying the ATF4 luciferase reporter were plated on polylysine coated 384-well plates (Greiner Bio-one) at 30,000 cells per well. Cells were treated the next day with 1 μg/mL tunicamycin and 200 nM of a compound of Formula (I) for 7 hours. Luminescence was measured using One Glo (Promega) as specified by the manufacturer. Cells were maintained in DMEM with L-glutamine supplemented with 10% heat-inactivated FBS (Gibco) and Antibiotic-Antimycotic solution (Gibco).
Table 2 below summarizes the EC50 data obtained using the ATF4-Luc assay for exemplary compounds of the invention.
Background: Reporter assays use an easily measured gene product as a stand-in for the process of interest.

With `O=C(COc1ccc(Cl)c(F)c1)N[C@H]1C[C@H]2C[C@@H]1C[C@@H]2NC(=O)[C@H]1CC(=O)c2cc(Cl)ccc2O1` (mixture of isomers) [Compound 368, (2R)-6-chloro-N-{(1RS,2SR,4RS,5SR)-5-[2-(4-chloro-3-fluorophenoxy)acetamido]bicyclo[2.2.1]heptan-2-yl}-4-oxo-3,4-dihydro-2H-1-benzopyran-2-carboxamide], the EC50 (as a rule, the concentration that produces a half-maximal response) (Homo sapiens, HEK-293T) is under 10 nM.
The same measure, in the same setting: the value for `O=C(COc1ccc(Cl)c(F)c1)NC12CC(NC(=O)[C@@H]3C[C@H](O)c4cc(Cl)ccc4O3)(C1)C2` (racemic) [Compound 190, rac-(2R,4R)-6-chloro-N-{3-[2-(4-chloro-3-fluorophenoxy)acetamido]bicyclo[1.1.1]pentan-1-yl}-4-hydroxy-3,4-dihydro-2H-1-benzopyran-2-carboxamide] was under 10 nM; that for `O=C(COc1ccc(Cl)c(F)c1)NC12CC(NC(=O)C3CC(N[C@H]4C[C@@H](O)C4)c4cc(Cl)ccc4O3)(C1)C2` (mixture of isomers) [Compound 209, 6-chloro-N-{3-[2-(4-chloro-3-fluorophenoxy)acetamido]bicyclo[1.1.1]pentan-1-yl}-4-{[(1s,3s)-3-hydroxycyclobutyl]amino}-3,4-dihydro-2H-1-benzopyran-2-carboxamide] was 50 to 250 nM; that for `O=C(NC12CC(NC(=O)[C@H]3C[C@@H](O)c4cc(Cl)ccc4O3)(C1)C2)c1cnc(C(F)F)cn1` (racemic) [Compound 218, N-(3-{[rac-(2R,4R)-6-chloro-4-hydroxy-3,4-dihydro-2H-1-benzopyran-2-carbonyl]amino}bicyclo[1.1.1]pentan-1-yl)-5-(difluoromethyl)pyrazine-2-carboxamide] was 10 to 50 nM.
Still for that read-out and setting: the value for `O=C(COc1ccc(Cl)c(F)c1)NC12CC(NC(=O)[C@H]3C[C@@H](O)c4cc(Cl)c(F)cc4O3)(C1)C2` (racemic) [Compound 234, rac-(2R,4R)-6-chloro-N-{3-[2-(4-chloro-3-fluorophenoxy)acetamido]bicyclo[1.1.1]pentan-1-yl}-7-fluoro-4-hydroxy-3,4-dihydro-2H-1-benzopyran-2-carboxamide] was under 10 nM.
Regarding `O=C(COc1ccc(Cl)c(F)c1)NC12CC(NC(=O)[C@H]3C[C@@H](O)c4cc(F)c(F)cc4O3)(C1)C2` (racemic) [Compound 249, rac-(2R,4R)—N-{3-[2-(4-chloro-3-fluorophenoxy)acetamido]bicyclo[1.1.1]pentan-1-yl}-6,7-difluoro-4-hydroxy-3,4-dihydro-2H-1-benzopyran-2-carboxamide], the EC50 (Homo sapiens, HEK-293T) was under 10 nM.
On to `C[C@]1(C(=O)NC23CC(NC(=O)COc4ccc(Cl)c(F)c4)(C2)C3)C[C@H](O)c2cc(Cl)ccc2O1` (racemic) [Compound 250, rac-(2R,4S)-6-chloro-N-{3-[2-(4-chloro-3-fluorophenoxy)acetamido]bicyclo[1.1.1]pentan-1-yl}-4-hydroxy-2-methyl-3,4-dihydro-2H-1-benzopyran-2-carboxamide], for which the 50% effective concentration (EC50) (Homo sapiens, HEK-293T) lay within 50 to 250 nM.
Regarding `C[C@]1(C(=O)NC23CC(NC(=O)COc4ccc(Cl)c(F)c4)(C2)C3)C[C@@H](O)c2cc(Cl)ccc2O1` (racemic) [Compound 251, rac-(2R,4R)-6-chloro-N-{3-[2-(4-chloro-3-fluorophenoxy)acetamido]bicyclo[1.1.1]pentan-1-yl}-4-hydroxy-2-methyl-3,4-dihydro-2H-1-benzopyran-2-carboxamide], the EC50 (Homo sapiens, HEK-293T) fell in the range of 10 to 50 nM.
On the same count and under the same terms, the result for `O=C(NC12CCC(NC(=O)[C@H]3C[C@@H](O)c4cc(Cl)ccc4O3)(C1)C2)c1ccc(OC(F)(F)F)cn1` (racemic) [Compound 293, N-(4-{[rac-(2R,4R)-6-chloro-4-hydroxy-3,4-dihydro-2H-1-benzopyran-2-carbonyl]amino}bicyclo[2.1.1]hexan-1-yl)-5-(trifluoromethoxy)pyridine-2-carboxamide] reads 10 to 50 nM; that for `O=C(COc1ccc(Cl)c(F)c1)NC12CCC(NC(=O)[C@H]3C[C@@H](O)c4cc(Cl)ccc4O3)(C1)C2` (racemic) [Compound 296, rac-(2R,4R)-6-chloro-N-{4-[2-(4-chloro-3-fluorophenoxy)acetamido]bicyclo[2.1.1]hexan-1-yl}-4-hydroxy-3,4-dihydro-2H-1-benzopyran-2-carboxamide], under 10 nM; that for `O=C(COc1ccc(Cl)c(F)c1)NC12CC(NC(=O)[C@H]3C[C@H](NCCO)c4cc(Cl)ccc4O3)(C1)C2` (racemic) [Compound 301, rac-(2R,4S)-6-chloro-N-{3-[2-(4-chloro-3-fluorophenoxy)acetamido]bicyclo[1.1.1]pentan-1-yl}-4-[(2-hydroxyethyl)amino]-3,4-dihydro-2H-1-benzopyran-2-carboxamide], under 10 nM.
Turning to `O=C(NC12CCC(NC(=O)[C@H]3C[C@@H](O)c4cc(Cl)ccc4O3)(CC1)CC2)c1cnc(C(F)F)cn1` (racemic) [Compound 302, N-(4-{[rac-(2R,4R)-6-chloro-4-hydroxy-3,4-dihydro-2H-1-benzopyran-2-carbonyl]amino}bicyclo[2.2.2]octan-1-yl)-5-(difluoromethyl)pyrazine-2-carboxamide], under “Homo sapiens, HEK-293T”, the EC50 lay within 50 to 250 nM.
The same measure, in the same setting: the value for `COc1ccc2c(n1)[C@H](O)C[C@H](C(=O)NC13CC(NC(=O)COc4ccc(Cl)c(F)c4)(C1)C3)O2` (racemic) [Compound 334, rac-(2R,4R)—N-{3-[2-(4-chloro-3-fluorophenoxy)acetamido]bicyclo[1.1.1]pentan-1-yl}-4-hydroxy-6-methoxy-3,4-dihydro-2H-pyrano[3,2-b]pyridine-2-carboxamide] was 50 to 250 nM; that for `CO[C@@H]1C[C@H](C(=O)NC23CC(NC(=O)COc4ccc(Cl)c(F)c4)(C2)C3)Oc2ccc(Cl)cc21` (racemic) [Compound 340, rac-(2R,4R)-6-chloro-N-{3-[2-(4-chloro-3-fluorophenoxy)acetamido]bicyclo[1.1.1]pentan-1-yl}-4-methoxy-3,4-dihydro-2H-1-benzopyran-2-carboxamide] was under 10 nM.
The same measure, in the same setting: the result for `O=C(COc1ccc(Cl)c(F)c1)NC12CC(NC(=O)[C@H]3C[C@H](NC4(CO)CC4)c4cc(Cl)ccc4O3)(C1)C2` (racemic) [Compound 343, rac-(2R,4S)-6-chloro-N-{3-[2-(4-chloro-3-fluorophenoxy)acetamido]bicyclo[1.1.1]pentan-1-yl}-4-{[1-(hydroxymethyl)cyclopropyl]amino}-3,4-dihydro-2H-1-benzopyran-2-carboxamide] reads 10 to 50 nM.
Take `O=C(COc1ccc(Cl)c(F)c1)NC12CCC(NC(=O)[C@H]3C[C@@H](O)c4cc(Cl)ccc4O3)(CC1)NC2=O` (racemic) [Compound 364, rac-(2R,4R)-6-chloro-N-{4-[2-(4-chloro-3-fluorophenoxy)acetamido]-3-oxo-2-azabicyclo[2.2.2]octan-1-yl}-4-hydroxy-3,4-dihydro-2H-1-benzopyran-2-carboxamide]: the EC50 (Homo sapiens, HEK-293T) was under 10 nM.
As to `O=C(COc1ccc(Cl)c(F)c1)N[C@@H]1C[C@@H]2O[C@H]1C[C@H]2NC(=O)[C@@H]1C[C@@H](O)c2cc(Cl)ccc2O1` (racemic) [Compound 369, (2S,4R)-6-chloro-N-{(1RS,2SR,4RS,5SR)-5-[2-(4-chloro-3-fluorophenoxy)acetamido]-7-oxabicyclo[2.2.1]heptan-2-yl}-4-hydroxy-3,4-dihydro-2H-1-benzopyran-2-carboxamide], the EC50 (Homo sapiens, HEK-293T) lay in the range of 10 to 50 nM.
Same read-out and setting: the value for `O=C(COc1ccc(Cl)c(F)c1)N[C@@H]1C[C@@H]2O[C@H]1C[C@H]2NC(=O)[C@H]1C[C@@H](O)c2cc(Cl)ccc2O1` (racemic) [Compound 370, (2R,4R)-6-chloro-N-{(1RS,2SR,4RS,5SR)-5-[2-(4-chloro-3-fluorophenoxy)acetamido]-7-oxabicyclo[2.2.1]heptan-2-yl}-4-hydroxy-3,4-dihydro-2H-1-benzopyran-2-carboxamide] was under 10 nM.
The same measure, in the same setting: the value for `O=C(COc1ccc(Cl)c(F)c1)N[C@@H]1C[C@@H]2C[C@H]1C[C@H]2NC(=O)[C@H]1C[C@@H](O)c2cc(Cl)ccc2O1` (racemic) [Compound 371, (2R,4R)-6-chloro-N-{(1RS,2SR,4RS,5SR)-5-[2-(4-chloro-3-fluorophenoxy)acetamido]bicyclo[2.2.1]heptan-2-yl}-4-hydroxy-3,4-dihydro-2H-1-benzopyran-2-carboxamide] was under 10 nM.
Take `O=C(COc1ccc(Cl)c(F)c1)N[C@@H]1C[C@@H]2O[C@H]1C[C@H]2NC(=O)[C@@H]1C[C@H](O)c2cc(Cl)ccc2O1` (racemic) [Compound 372, (2S,4S)-6-chloro-N-{(1RS,2SR,4RS,5SR)-5-[2-(4-chloro-3-fluorophenoxy)acetamido]-7-oxabicyclo[2.2.1]heptan-2-yl}-4-hydroxy-3,4-dihydro-2H-1-benzopyran-2-carboxamide]: the EC50 (Homo sapiens, HEK-293T) was in the range of 10 to 50 nM.
On the same count and under the same terms, the result for `O=C(COc1ccc(Cl)c(F)c1)NC12CC(NC(=O)C3CNc4cc(Cl)ccc4O3)(C1)C2` (single isomer, unassigned) [Compound 102] reads under 10 nM.
For `O=C(COc1ccc(Cl)c(F)c1)NC12CC(NC(=O)C3CNc4cc(Cl)ccc4O3)(C1)C2` (single isomer, unassigned) [Compound 103], the EC50 was under 10 nM.
On to `CN1CC(C(=O)NC23CC(NC(=O)COc4ccc(Cl)c(F)c4)(C2)C3)Oc2ccc(Cl)cc21` (single isomer, unassigned) [Compound 104], for which the EC50 (Homo sapiens, HEK-293T) was under 10 nM.
Same read-out and setting: the value for `O=C(COc1ccc(Cl)c(F)c1)NC12CC(NC(=O)[C@@H]3C[C@H](O)c4cc(F)c(Cl)cc4O3)(C1)C2` (single isomer, unassigned) [Compound 205] was under 10 nM.
